Source: patent US6518262B1, “22R-hydroxycholesta-8, 14-diene derivatives for the inhibition of meiosis” (Akzo Nobel N.V., priority 1999, dated 2003)

What was measured:
[1] = test system: cumulus enclosed oocytes (CEO); test: Oocyte assay, agonistic testing, cumulus enclosed oocytes (CEO assay); type: cell-based, mice (B6D2-F1, strain C57BL×DBA); details: hypoxanthine medium, 22 hours culture, control value in brackets
Text: (§1) Oocytes arrested in meiosis contain diffused chromosomes which are surrounded by an intact nuclear envelope known as the germinal vesicle (GV). Upon reinitiation of meiosis by the midcycle gonadotropin surge, the chromosomes recondense and the GV breaks down (GVBD). In vivo, the oocyte is exposed to hypoxanthine (HX), which maintains the oocyte arrested in the meiotic prophase. This meiotic arrest can be mimicked in vitro by addition of hypoxanthine to the culture medium. The agonistic activity of meiosis activating substances is measured as the ability to overcome the hypoxanthine maintained meiotic arrest in denuded oocytes (DO) or cumulus enclosed oocytes (CEO), i.e. as the ability to induce meiotic resumption in vitro.
(§2) Ovaries are obtained from immature female mice (B6D2-F1, strain C57BL×DBA). At the age of 19, 20 or 21 days the mice are injected subcutaneously with a single dose of 20 IU follicle stimulating hormone (Humegon, Organon, The Netherlands) in saline.
Forty-eight hours after follicle stimulating hormone injection mice are killed by cervical dislocation. The ovaries are removed, freed of extraneous tissue and placed in a multidish containing 0.5 ml preparation medium at 37° C. L-15 Leibovitz medium (Gibco, pH 7.3±0.1) supplemented with bovine serum albumin (3 mg·ml^−1), L-glutamine (0.23 mM), sodium pyruvate (2 mM) and hypoxanthine (4 mM) is used as preparation medium. […]
(§3) The oocyte assay is performed in 3 blocks, each block represents the ovaries of one mouse (randomized block design). […] At t=0 the number of oocytes with intact germinal vesicles (GV) or germinal vesicle break-down (GVBD) is counted under an inverted microscope with differential interference contrast equipment. […] At the end of the culture period the number of oocytes with GV or GVBD per group is counted. For statistical analysis the percentage germinal vesicle breakdown is calculated for each group in one block. These percentages are subjected to arcsin transformation, and differences between control and test compounds are analyzed by an ANOVA test for a randomized block design. […]

[2] = test system: denuded oocytes (DO); test: Oocyte assay, agonistic testing, denuded oocytes (DO assay); type: cell-based, mice (B6D2-F1, strain C57BL×DBA); details: hypoxanthine medium, 22 hours culture, control value in brackets
Text: as §1, §2
Forty-eight hours after follicle stimulating hormone injection mice are killed by cervical dislocation. The ovaries are removed, freed of extraneous tissue and placed in a multidish containing 0.5 ml preparation medium at 37° C. L-15 Leibovitz medium (Gibco, pH 7.3±0.1) supplemented with bovine serum albumin (3 mg·ml^−1), L-glutamine (0.23 mM), sodium pyruvate (2 mM) and hypoxanthine (4 mM) is used as preparation medium. The antral follicles of the ovaries are punctured under a dissecting microscope using two 27-gauge needles attached to two 1 ml syringes. Cumulus enclosed oocytes (CEO) of uniform size are selected with a mouth-controlled pipette and rinsed in 0.5 ml fresh preparation medium. About 20 CEO are obtained from one ovary.
Oocytes freed from cumulus cells, i.e. denuded oocytes (DO), are obtained by gently flushing CEO through a fine-bore mouth-controlled pipette. DO were collected in fresh MEM alpha medium, containing bovine serum albumin (3 mg·ml^−1), L-glutamine (0.23 mM), sodium pyruvate (2 mM) and hypoxanthine (4 mM), and washed twice before transfer to the test medium.
as §3

[3] = test system: cultured cumulus enclosed and naked mouse oocytes; details: cited from earlier work

| Structure (SMILES) | % GVBD CEO assay exp. ([1]; compound 5 μM) | % GVBD DO assay exp. ([2]; compound 5 μM) | activation of the resumption of meiosis [3] | % GVBD CEO assay exp. ([1]; compound 10 μM) | % GVBD DO assay exp. ([2]; compound 10 μM) |
| --- | --- | --- | --- | --- | --- |
| CC(C)=CC[C@H](O)[C@@H](C)[C@H]1CC=C2C3=C(CC[C@@]21C)[C@@]1(C)CC[C@H](O)C(C)(C)[C@@H]1CC3 [22S-hydroxy-FF-Mas, (3β,5α,20S,22S)-4,4-dimethylcholesta-8,14,24-triene-3,22-diol] | 73(2) % | 97(2) % | – | – | – |
| CC(C)=CCC[C@@H](C)[C@H]1CC[C@H]2C3=C(CC[C@]12C)[C@@]1(C)CC[C@H](O)C(C)(C)[C@@H]1CC3 [(3β,5α,20R)-4,4-dimethylcholesta-8,24-dien-3-ol] | – | – | able to activate the resumption of meiosis | – | – |
| CC(C)=CCC[C@@H](C)[C@H]1CC=C2C3=C(CC[C@@]21C)[C@@]1(C)CC[C@H](O)C(C)(C)[C@@H]1CC3 [FF-Mas, (3β,5α,20R)-4,4-dimethylcholesta-8,14,24-trien-3-ol] | – | – | able to activate the resumption of meiosis | 0(0) % | 84(7) % |
